PubChem BioAssay AID624258 (Broad Institute, 2012)
Calls of active or inactive are those of the source. No rule for the calls is given here.

The compounds below were run on S. cerevisiae SKN7-toxicity growth rescue, plate reader (assay: Yeast SKN7 toxicity growth rescue counterscreen, Saccharomyces cerevisiae, plate reader, dose confirmatory (AID 624258);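 also: growth read after three days of incubation at 30 °C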).
`CC1=C(C)/C(=N\OS(=O)(=O)c2ccc(C)cc2)C=CC1=O` was tested, and the AC40 was 1110 nM. `CCc1cc(C(N)=O)c(NC(=O)c2ccc(OC)cc2)s1` showed an AC40 of 6020 nM. `Clc1cccc(-c2noc3ncnc(Nc4ccc5c(c4)OCO5)c23)c1` gave an AC40 of 7060 nM. In the case of `O=S(=O)(CCSc1nc2ccccc2s1)c1nc2ccccc2s1`, the AC40 is reported as 2430 nM. Compound `COc1ccc(C(=O)NC(=S)NNC(=O)CCc2ccccc2)cc1` has an AC40 of 1420 nM. In the case of `C[C@@]12C(=O)Nc3ccc(F)cc3C(=O)N1[C@H]1c3ccccc3OC[C@@H]1[C@@H]2c1ccccc1`, the AC40 is reported as 11500 nM. `Cc1nn2c(-c3ccncc3)nnc2c2ccccc12` was tested, and the AC40 was > 6800 nM (inactive). For `O=C(O)c1ccc(C(=O)c2cc([N+](=O)[O-])cc([N+](=O)[O-])c2)cc1`, the AC40 was 15700 nM. In the case of `O=Nc1c(O)n(Cc2ccc(Cl)c(Cl)c2)c2ccccc12`, the AC40 is reported as 8740 nM. For `COc1cccc2c1C(=O)c1c(O)c3c(c(O)c1C2=O)CC(O)(C(C)=O)CC3OC1CC(N(C)C)C(O)C(C)O1` (configuration not stated), the AC40 was 2850 nM. `Cc1onc(-c2ccccc2)c1C(=O)NC(=S)NNC(=O)c1cc(-c2ccc(F)cc2)n[nH]1` gave an AC40 of 2100 nM. `COc1ccc(N=NC2=C(O)CC(C)(C)CC2=O)c(OC)c1` was tested, and the AC40 was 306 nM. With `O=c1c(=Nc2ccccc2O)c(=O)c2ccccc12` the AC40 was 1060 nM. In the case of `CC(C)(C)c1cc(CCC(=O)NNC(=S)NC(=O)c2ccccc2)cc(C(C)(C)C)c1O`, the AC40 is reported as 6310 nM. `O=C1C=C(Nc2cccnc2)c2ccccc2C1=O` showed an AC40 of 11000 nM. `O=C(Nc1cccc(-c2nc3ccccc3s2)c1)c1cccs1` was tested, and the AC40 was 1340 nM. In the case of `Cc1ccc([C@@H]2CC=C(C(=O)O)[C@H](c3ccc(Br)cc3)N2S(=O)(=O)c2ccccc2C)cc1`, the AC40 is reported as 5390 nM. `Cc1ccccc1OCC(O)Cn1c2ccccc2c2ccccc21` (configuration not stated) showed an AC40 of 3610 nM. Work on `O=C(C=Cc1cccc(O)c1)c1ccccc1O` yielded an AC40 of 1430 nM. With `COc1cccc(NC=C2C(=O)OC3(CCCCC3)OC2=O)c1` the AC40 was 5080 nM. In the case of `Cc1ccc2c(C)c3ccc4ccccc4c3c[n+]2c1`, the AC40 is reported as 247 nM. `COc1ccc2c(c1)[C@H]1[C@H](CO2)[C@H](c2ccccc2)[C@]2(C)C(=O)Nc3ccc(Cl)cc3C(=O)N12` showed an AC40 of 17200 nM. For `CC(C)(C)n1nc(-c2ccc(F)cc2)c2c(N)ncnc21`, the AC40 was 15400 nM. `O=C(NNC(=O)c1cc(Cl)ccc1O)c1cccc(S(=O)(=O)N2CCOCC2)c1` was tested, and the AC40 was 3310 nM. `O=C(C1=C(Nc2ccccc2)c2ccccc2S(=O)(=O)N1)c1ccccc1` was tested, and the AC40 was 2510 nM. `Cc1ccc(CNC(=O)CSc2ccc(-c3ccccn3)nn2)cc1` gave an AC40 of 2750 nM. `O=C(NCCN1CCN(c2cccc(Cl)c2)CC1)c1ccc(CSc2nc3ccncc3[nH]2)cc1` was tested, and the AC40 was 8350 nM. Work on `Cc1ccc(SCCNC(=S)Nc2ccc(C)c(C)c2)cc1` yielded an AC40 of 14200 nM. In the case of `CCCC(=O)NC(c1ccccc1OC)c1ccc2cccnc2c1O` (configuration not stated), the AC40 is reported as 1200 nM. `CCn1c(=O)oc2cc(NC(=O)CCl)ccc21` was tested, and the AC40 was 18200 nM. In the case of `Cc1cc(C)c(OCC(=O)Nc2nc(-c3ccccn3)cs2)c(C)c1`, the AC40 is reported as 562 nM. Work on `COc1ccccc1CNC(=O)CSc1ccc(-c2ccccn2)nn1` yielded an AC40 of 10300 nM. Work on `Cc1ccc(S(=O)(=O)N2[C@@H](c3ccc(Cl)cc3)C(C(=O)O)=CC[C@H]2c2ccc(Cl)c(Cl)c2)cc1` yielded an AC40 of 3310 nM. With `N/C(Cc1ccc(Cl)cc1Cl)=N\OC(=O)c1ccc(Br)o1` the AC40 was 746 nM. With `COC(=O)c1cc(Sc2cccc(Cl)c2Cl)ccn1` the AC40 was 14700 nM. Work on `CCN(CC)c1ccc(/C=N/NC(=O)c2c(Cl)cnn2C)c(O)c1` yielded an AC40 of 878 nM. `O=C(Nc1ccccc1N1CCOCC1)c1cc2c(s1)CCCCC2` showed an AC40 of 7060 nM. `S=c1[nH]nc(-c2ccco2)n1/N=C/C(Cl)=C/c1ccccc1` was tested, and the AC40 was 10800 nM. In the case of `COc1ccc([C@H]2[C@H]3C=CC[C@@H](C)[C@@H]3C(=O)N2Cc2ccccc2)cc1Cl`, the AC40 is reported as 4570 nM. For `CSc1cccc(NC(=O)/C=C/c2cccc(Cl)c2)c1`, the AC40 was 4520 nM. Compound `Clc1ccc(OCc2nc(-c3ccncc3)no2)c(Br)c1` has an AC40 of 950 nM. `NNC(=O)c1ccc2nc(-c3ccc(Br)cc3)cn2c1` gave an AC40 of 13100 nM. Compound `CC1CCCCC1NC(=O)/C(C#N)=C/c1ccccc1F` (configuration not stated) has an AC40 of 2040 nM. Work on `CC1=CC(=O)C(C(C)C)=C/C1=N/OS(=O)(=O)c1ccccc1` yielded an AC40 of 110 nM. With `Cc1ccc2oc(-c3ccccc3)c(C(=O)O)c(=O)c2c1` the AC40 was 1260 nM. With `COc1ccc(-c2cc(C(=O)NNC(=S)NC(=O)c3c(-c4ccccc4)noc3C)[nH]n2)cc1` the AC40 was 2310 nM. With `COc1cc(NC(=O)CSc2ccc(-c3ccccn3)nn2)cc(OC)c1` the AC40 was 894 nM. `CC(=O)c1ccc(Sc2ccccc2)c([N+](=O)[O-])c1` was tested, and the AC40 was > 19500 nM (inactive). With `CC/C(=N\Nc1ccc([N+](=O)[O-])cc1)c1ccccc1` the AC40 was 1620 nM. Compound `O=C(COC(=O)c1ccc([N+](=O)[O-])o1)NC1CCCc2ccccc21` (configuration not stated) has an AC40 of 2340 nM. `CCCCCCCCCCn1c2c(c(=N)c3c1CCC3)CCC2` was tested, and the AC40 was > 6800 nM (inactive). For `Cc1cccc(N2CCN(C(=O)c3c(-c4ccccc4)noc3C)CC2)c1C`, the AC40 was 414 nM. For `CCNc1nc(N)nc(-c2cc(Cl)ccc2O)n1`, the AC40 was 2170 nM. For `Cc1n[nH]c(C)c1N=Nc1ccc(Br)cc1`, the AC40 was 1760 nM. Compound `O=[N+]([O-])c1cc2oc3c(c2c(C=NCc2ccccc2)c1O)CCCC3` has an AC40 of 1380 nM. Compound `Cc1cccc(C)c1NS(=O)(=O)c1ccc(-c2cnc(C3CC3)o2)cc1` has an AC40 of 7850 nM. `CC(C)(C)c1ccc(Cn2ccc(-c3ccc4c(c3)OCO4)n2)cc1` gave an AC40 of 8820 nM. `CCN(CC)c1ccc(/C=N/NC(=O)c2cccc(S(=O)(=O)N3CCOCC3)c2)c(O)c1` gave an AC40 of 1390 nM. `CN(C)S(=O)(=O)c1cccc(NC(=S)NNC(=O)c2cc3ccccc3cc2O)c1` showed an AC40 of 1270 nM. In the case of `COc1cccc(-n2nc(C#N)c(Cl)cc2=O)c1`, the AC40 is reported as 2080 nM. `O=S(=O)(CCSc1ccccn1)c1nc2ccccc2s1` was tested, and the AC40 was 6530 nM. `O=c1[nH]c(=O)n(C2OC(CO)C(O)C2O)cc1F` (configuration not stated) showed an AC40 of 12900 nM. For `CO/N=C/c1ccc(Oc2ccc([N+](=O)[O-])cc2[N+](=O)[O-])c(OC)c1`, the AC40 was 18500 nM. With `Cc1[nH]n(-c2ccccc2)c(=O)c1/C=N/Nc1nncc(-c2ccccc2)n1` the AC40 was 1110 nM. `Cc1cccc(NS(=O)(=O)c2ccc(-c3cnc(C4CC4)o3)cc2)c1C` gave an AC40 of 12600 nM. With `O=C1Cc2ccccc2C(=O)N1CCc1ccccc1` the AC40 was 10500 nM. With `Cc1noc2ncnc(SCc3ccc(C(F)(F)F)cc3)c12` the AC40 was 965 nM. For `O=C(N/N=C/c1cc(Br)ccc1O)c1ccccc1Cl`, the AC40 was 659 nM. With `CC(C)CN=Cc1c(O)c([N+](=O)[O-])cc2oc3c(c12)CCCC3` the AC40 was 1250 nM. `O=C(N[C@@H](Cc1ccccc1)C(=O)CCl)OCc1ccccc1` showed an AC40 of 1140 nM. Compound `CCOC(=O)C1=C(Cc2ccc(OC)cc2)C(=O)c2ccccc2C1=O` has an AC40 of 2670 nM. Work on `Cc1ccc(C)c(NS(=O)(=O)c2cc(C(=O)N3CCc4ccccc4C3)ccc2Cl)c1` yielded an AC40 of 6580 nM. With `CC1(C(=O)OCC(=O)Nc2ccc3ccccc3c2)CC1(Cl)Cl` (configuration not stated) the AC40 was 17600 nM. `O=S(=O)(CCSc1nc2ccccc2o1)c1nc2ccccc2s1` gave an AC40 of 3620 nM. For `Cc1ccccc1OCc1nc2ccccc2n1C`, the AC40 was 7540 nM. Compound `O=C1c2ccccc2C2=Nc3ccccc3SC(c3cccc(F)c3)C12` (configuration not stated) has an AC40 of 1240 nM. For `CCc1ccc([C@@H]2CC=C(C(=O)O)[C@H](c3ccc(Cl)cc3)N2S(=O)(=O)c2ccc(C)cc2)cc1`, the AC40 was 4510 nM. Compound `CNC1=C(N(C(C)=O)c2ccc(Br)cc2)C(=O)c2ccccc2C1=O` has an AC40 of 15800 nM. In the case of `CC(C)(C)C(=O)C(Oc1ccc(Cl)cc1)n1cncn1` (configuration not stated), the AC40 is reported as 2020 nM. In the case of `Clc1cccc(N/N=C(\Cc2nc3ccccc3[nH]2)c2ccccc2)c1`, the AC40 is reported as 2610 nM. With `Cc1cccc(C)c1N=Nc1c(C)cc(O)cc1C` the AC40 was 1120 nM. `COc1cccc(CNC(=O)COc2ccc(C(=O)c3ccccc3)cc2)c1` showed an AC40 of 18000 nM.
